Measurements taken from a melting point compilation (Tetko et al.).

SMILES	melting point
O=C(CCl)Nc1ccncc1	295 to 297 °C
CCCC(=O)Nc1ccc(Cl)c(N)c1	96 to 98 °C
O=S(=O)(NCCBr)c1ccccc1	54 to 56 °C
Clc1ccnc(-c2ccccc2)n1	69 to 71 °C
O=C(O)CCSc1ccc(F)cc1	76 to 78 °C
Cc1nc(-c2ccccn2)sc1C(=O)O	235 to 237 °C
CNC(=O)Cc1ccc(N)cc1	84 to 86 °C
COC(=O)c1occc1CC#N	62 to 64 °C
O=C(O)CNC(=O)c1ccc(Cl)c(Cl)c1	136 to 138 °C
O=C(O)c1ccc2c(c1)C(=O)N(Cc1ccco1)C2=O	172 to 176 °C
C#CCN1CCNC1=O	119 to 121 °C
C=CC(=O)Nc1ccccc1OC	68 to 70 °C
COc1nc(C)ccc1C#N	84 to 86 °C
CC(C)CN1CC(C(=O)O)CC1=O (configuration not stated)	83 to 85 °C
COc1ccc(CCNC(C)=O)cc1S(=O)(=O)Cl	76 to 78 °C
O=[N+]([O-])c1cc(S(=O)(=O)Cl)c(F)cc1F	46 to 48 °C
N#CCCC(=O)c1cccnc1	71 to 73 °C
Cn1c(S)nnc1Cc1ccccc1	158 to 160 °C
O=C(O)C(Sc1cc(F)ccc1F)c1ccccc1 (configuration not stated)	106 to 108 °C
NC(=NO)c1ccc(Br)cc1	153 to 155 °C
CC(C)(C)c1ccc(S(=O)(=O)N2CCNCC2)cc1	126 to 128 °C
NC(=O)c1cc(Br)ccc1N	183 to 185 °C
NCC1(C(N)=O)CCCC1	61 to 63 °C
CN1CCN(c2ccnc(C#N)c2)CC1	114 to 116 °C

SMILES	melting point
CC(=O)Nc1cc(F)c(S(=O)(=O)Cl)cc1Cl	163 to 165 °C
COC(=O)c1cccc(CC(=O)O)c1	74 to 76 °C
c1ccc(COc2cccc3cn[nH]c23)cc1	126 to 128 °C
NC(=O)NC(CC(=O)O)c1ccc(Cl)cc1 (configuration not stated)	198 to 200 °C
CC(=O)c1cccc(N(S(C)(=O)=O)S(C)(=O)=O)c1	185 to 187 °C
NNc1c(Cl)cc(C(=O)O)cc1Cl	207 to 209 °C
NCC(c1cccs1)c1c[nH]c2ccccc12 (configuration not stated)	145 to 147 °C
COc1ccccc1NS(=O)(=O)c1ccc(NN)c([N+](=O)[O-])c1	181 to 183 °C
O=C(Nc1nnc(C2CCCCC2)s1)OCC(F)(F)F	182 to 184 °C
COc1cccc(-c2nn(Cc3ccccc3)cc2C(=O)O)c1	174 to 176 °C
O=C(CCl)N(Cc1ccccc1)c1ccccc1	79 to 81 °C
O=C(O)c1ccc(CSc2ccccc2)cc1	179 to 181 °C
CC1(c2ccc(Br)cc2)NC(=O)N(CC(=O)O)C1=O (configuration not stated)	247 to 249 °C
COC(=O)c1ccc(C)c(NC(=O)CCl)c1	135 to 137 °C
O=S(=O)(Cl)c1cccc2c1OCCO2	74 to 76 °C
O=c1[nH]cnc2c1oc1ccccc12	300 to 302 °C
CN1CC(=O)N(Cc2ccc(C(N)=O)cc2N)C1=O	187 to 189 °C
O=C(O)c1ccc(S(=O)(=O)N2CCCC2)cc1	243 to 245 °C
O=[N+]([O-])c1ccc(Cl)c(S(=O)(=O)N2CCOCC2)c1	149 to 151 °C
O=C(c1ccc[nH]1)N1CCCNCC1	143 to 145 °C
Cc1cnn(-c2ccccc2)c1N	79 to 81 °C
CCOC(=O)c1sc2nc(CN3CCOCC3)nc(Cl)c2c1C	110 to 112 °C
O=C(O)C(Cc1ccsc1)C(=O)O	108 to 110 °C
CC1CNC(=O)N1c1cccc(N)c1 (configuration not stated)	169 to 171 °C

SMILES	melting point
Cc1cccc(N2CCN(Cc3ccc(N)cc3)CC2)c1	103 to 105 °C
NC(=O)C1CCN(c2ccc(N)cc2)CC1	205 to 207 °C
NC(=O)NCCCC(=O)O	171 to 173 °C
CS(=O)(=O)OCCN1C(=O)c2ccccc2C1=O	140 to 142 °C
Cc1ccc(NC(N)=O)cc1F	190 to 192 °C
CC(C)(C)c1ccc(C(=O)NC(=O)CCl)cc1	120 to 122 °C
Cc1cccc(OCCC(=O)O)c1	99 to 101 °C
Nc1nc2cnccc2s1	275 to 277 °C
NCCc1cc2ccccc2[nH]1	95 to 97 °C
Nc1ccnc(-c2ccccc2)c1	126 to 128 °C
Nc1ccc(Cl)c(S(=O)(=O)Nc2ccc(Cl)cc2)c1	123 to 125 °C
COC(=O)C(N)c1ccc2ccccc2c1 (configuration not stated)	56 to 58 °C
c1n[nH]cc1C1CCCNC1 (configuration not stated)	71 to 73 °C
Cc1ccc2[nH]cc(C=O)c2c1	142 to 144 °C
O=C(O)c1c[nH]cc1C(=O)O	311 to 313 °C
NS(=O)(=O)c1cccs1	142 to 144 °C
Cc1ccccc1SCC(=O)O	108 to 110 °C
Cc1ccccc1-c1noc(=O)[nH]1	155 to 157 °C
O=C(O)C=Cc1cccc(CO)c1	129 to 131 °C
O=C1NCCN2CCCCC12 (configuration not stated)	134 to 136 °C
COc1cc(NC(=O)CCl)cc(OC)c1OC	104 to 106 °C
CCCc1cnc(N)s1	43 to 45 °C
N#Cc1ccc(-n2cnc(N)n2)cc1	238 to 240 °C
CC(C)(C)OC(=O)N1CCC(N2CCCC2C(=O)O)CC1 (configuration not stated)	169 to 171 °C
